Converted amounts (≈) assume the structure as drawn.
Experiments:
[1] = system: Pseudomonas aeruginosa PAM 1020; experiment: MIC broth microdilution, P. aeruginosa PAM 1020 (wild type); assay type: cell-based; details: P. aeruginosa PAM 1020
[2] = system: Pseudomonas aeruginosa PAM 1154; experiment: MIC broth microdilution, P. aeruginosa PAM 1154 (OprM::Hg); assay type: cell-based; details: P. aeruginosa PAM 1154 OprM::Hg
[3] = system: Pseudomonas aeruginosa PAM 1135; experiment: MIC broth microdilution, P. aeruginosa PAM 1135 (high level UPA resistance); assay type: cell-based; details: P. aeruginosa PAM 1135 UPA1^r
[4] = system: Pseudomonas aeruginosa PAM 1323; experiment: MIC broth microdilution, P. aeruginosa PAM 1323 (medium level UPA resistance); assay type: cell-based
Escherichia Coli MC 4100 = experiment: MIC broth microdilution, E. coli MC 4100 (wild type); assay type: cell-based; details: E. coli MC 4100
[5] = system: Escherichia Coli MC 4100 AcrAB; experiment: MIC broth microdilution, E. coli MC 4100 AcrAB (ΔAcrAB); assay type: cell-based; details: E. coli AcrAB
[6] = system: Escherichia Coli MC 4100 AcrAB UPA3r; experiment: MIC broth microdilution, E. coli MC 4100 AcrAB UPA3r (ΔAcrAB, UPA resistant); assay type: cell-based; details: E. coli AcrAB UPA3^r
[7] = system: Staphylococcus aureus ATCC 29213; experiment: MIC broth microdilution, S. aureus ATCC 29213 (wild type); assay type: cell-based; details: S. aureus ATCC 29213
[8] = system: Staphylococcus aureus 8325-4; experiment: MIC broth microdilution, S. aureus 8325-4 (wild type); assay type: cell-based; details: S. aureus 8325-4
[9] = system: Pasteurella multocida pm002; experiment: MIC broth microdilution, P. multocida pm002 (wild type); assay type: cell-based
[10] = system: Mycobacterium fortuitum ATCC 6841; experiment: MIC broth microdilution, M. fortuitum ATCC 6841; details: 72 hours at 35° C., CAMHB
[11] = system: Mycobacterium smegmatis ATCC 19420; experiment: MIC broth microdilution, M. smegmatis ATCC 19420; details: 72 hours at 35° C., CAMHB

Structure (SMILES) | MIC (μg/ml) Broth microdilution [1] | MIC (μg/ml) Broth microdilution [2] | MIC (μg/ml) Broth microdilution [3] | MIC (μg/ml) Broth microdilution [4] | MIC (μg/ml) Broth microdilution (Escherichia Coli MC 4100) | MIC (μg/ml) Broth microdilution [5] | MIC (μg/ml) Broth microdilution [6] | MIC (μg/ml) Broth microdilution [7] | MIC (μg/ml) Broth microdilution [8] | MIC (μg/ml) Broth microdilution [9] | MIC Broth microdilution M. fortuitum ATCC 6841 [10] | MIC Broth microdilution M. smegmatis ATCC19420 [11]
CC(C)CC(N)C(=O)N(C)C(C)C(NC(=O)C(Cc1ccc(F)cc1)NC(=O)NC(Cc1c[nH]c2ccccc12)C(=O)O)C(=O)NCC1CC(O)C(n2ccc(=O)[nH]c2=O)O1 [Compound 117, 1-[5′-[(2S,3S)-N^2-[N-[[(1S)-1-Carboxy-2-indol-3-ylethyl]carbamoyl]-L-4-fluorophenylalanyl]-N^3-L-leucyl-N^3-methyl-2,3-diaminobutyramido]-3′,5′-dideoxy-α-L-arabinofuranosyl]uracil] | 64 µg/mL (≈ 75.3 µM) | 64 µg/mL (≈ 75.3 µM) | >512 µg/mL | >512 µg/mL | >512 µg/mL | <1 µg/mL | 32 µg/mL (≈ 37.7 µM) | >512 µg/mL | >512 µg/mL | 256 µg/mL (≈ 301 µM) | 64 µg/mL (≈ 75.3 µM) | 8 µg/mL (≈ 9.41 µM)
C[C@@H]([C@H](NC(=O)[C@H](Cc1ccccc1)NC(=O)N[C@@H](Cc1c[nH]c2ccccc12)C(=O)O)C(=O)NC[C@H]1C[C@@H](O)[C@H](n2ccc(=O)[nH]c2=O)O1)N(C)C(=O)CN [Compound 128, 1-[5′-[(2S,3S)-N^2-[N-[[(1S)-1-Carboxy-2-indol-3-ylethyl]carbamoyl]-L-phenylalanyl]-N^3-glycyl-N^3-methyl-2,3-diaminobutyramido]-3′,5′-dideoxy-α-L-arabinofuranosyl]uracil] | 8 µg/mL (≈ 10.3 µM) | <1 µg/mL | >512 µg/mL | >512 µg/mL | 256 µg/mL (≈ 330 µM) | 2 µg/mL (≈ 2.58 µM) | 16 µg/mL (≈ 20.6 µM) | >512 µg/mL | 256 µg/mL (≈ 330 µM) | 64 µg/mL (≈ 82.5 µM) | 64 µg/mL (≈ 82.5 µM) | 4 µg/mL (≈ 5.16 µM)
C[C@H](N)C(=O)N(C)[C@@H](C)[C@H](NC(=O)[C@H](Cc1ccc2ccccc2c1)NC(=O)N[C@@H](Cc1c[nH]c2ccccc12)C(=O)O)C(=O)NC[C@H]1C[C@@H](O)[C@H](n2ccc(=O)[nH]c2=O)O1 [Compound 153] | 128 µg/mL (≈ 152 µM) | 16 µg/mL (≈ 19 µM) | >512 µg/mL | >512 µg/mL | 512 µg/mL (≈ 610 µM) | 2 µg/mL (≈ 2.38 µM) | 128 µg/mL (≈ 152 µM) | 512 µg/mL (≈ 610 µM) | 256 µg/mL (≈ 305 µM) | 64 µg/mL (≈ 76.2 µM) | – | –
CC(C)CC(NC(=O)NC(Cc1ccc(O)cc1)C(=O)O)C(=O)NC(C(=O)NCC1CC(O)C(n2ccc(=O)[nH]c2=O)O1)C(C)N(C)C(=O)C(C)N [Compound 161, 1-[5′-[(2S,3S)-N^3-L-Alanyl-N^2-[N-[[(1S)-1-carboxy-4-hydroxyphenethyl)carbamoyl]-L-leucyl]-N^3-methyl-2,3-diaminobutyramido]-3′,5′-dideoxy-α-L-arabinofuranosyl]uracil] | 16 µg/mL (≈ 21.8 µM) | 8 µg/mL (≈ 10.9 µM) | >512 µg/mL | 256 µg/mL (≈ 349 µM) | >512 µg/mL | 32 µg/mL (≈ 43.7 µM) | 256 µg/mL (≈ 349 µM) | >512 µg/mL | >512 µg/mL | 512 µg/mL (≈ 699 µM) | – | –
CSCCC(N)C(=O)N(C)C(C)C(NC(=O)C(CCSC)NC(=O)NC(Cc1c[nH]c2ccccc12)C(=O)O)C(=O)NCC1CC(O)C(n2ccc(=O)[nH]c2=O)O1 [Compound 162, 1-[5′-[(2S,3S)-N^2-[N-[[(1S)-1-Carboxy-2-indol-3-ylethyl]carbamoyl]-L-methionyl]-N^3-L-methionyl-N^3-methyl-2,3-diaminobutyramido]-3′,5′-dideoxy-α-L-arabinofuranosyl]uracil] | 64 µg/mL (≈ 76.7 µM) | 16 µg/mL (≈ 19.2 µM) | 256 µg/mL (≈ 307 µM) | 256 µg/mL (≈ 307 µM) | 512 µg/mL (≈ 614 µM) | 16 µg/mL (≈ 19.2 µM) | 512 µg/mL (≈ 614 µM) | >512 µg/mL | >512 µg/mL | 512 µg/mL (≈ 614 µM) | – | –
CC(C(NC(=O)C(Cc1ccccc1)NC(=O)NC(Cc1c[nH]c2ccccc12)C(=O)O)C(=O)NCC1CC(O)C(n2ccc(=O)[nH]c2=O)O1)N(C)C(=O)C(N)Cc1ccc(O)cc1 [Compound 163, 1-[5′-[(2S,3S)-N^2-[N-[[(1S)-1-Carboxy-2-indol-3-ylethyl]carbamoyl]-L-phenylalanyl]-N^3-L-tyrosyl-N^3-methyl-2,3-diaminobutyramido]-3′,5′-dideoxy-α-L-arabinofuranosyl]uracil] | 16 µg/mL (≈ 18.1 µM) | 16 µg/mL (≈ 18.1 µM) | 256 µg/mL (≈ 290 µM) | 256 µg/mL (≈ 290 µM) | 512 µg/mL (≈ 581 µM) | 4 µg/mL (≈ 4.54 µM) | 512 µg/mL (≈ 581 µM) | >512 µg/mL | >512 µg/mL | 256 µg/mL (≈ 290 µM) | – | –
CN[C@@H](C)[C@H](NC(=O)[C@H](C)NC(=O)N[C@@H](Cc1c[nH]c2ccccc12)C(=O)O)C(=O)NC[C@H]1C[C@@H](O)[C@H](n2ccc(=O)[nH]c2=O)O1 [Compound 165, 1-[5′-[(2S,3S)-N^2-[N-[[(1S)-1-Carboxy-2-indol-3-ylethyl]carbamoyl]-L-alanyl]-N^3-methyl-2,3-diaminobutyramido]-3′,5′-dideoxy-α-L-arabinofuranosyl]uracil] | >512 µg/mL | 128 µg/mL (≈ 199 µM) | >512 µg/mL | >512 µg/mL | >512 µg/mL | 4 µg/mL (≈ 6.22 µM) | 128 µg/mL (≈ 199 µM) | >512 µg/mL | >512 µg/mL | 256 µg/mL (≈ 398 µM) | – | –
CSCCC(NC(=O)NC(Cc1c[nH]c2ccccc12)C(=O)O)C(=O)NC(C(=O)NCC1CC(O)C(n2ccc(=O)[nH]c2=O)O1)C(C)N(C)C(=O)C(C)N [Compound 167, 1-[5′-[(2S,3S)-N^3-L-Alanyl-N^2-[N-[[(1S)-1-carboxy-2-indol-3-ylethyl]carbamoyl]-L-methionyl]-N^3-methyl-2,3-diaminobutyramido]-3′,5′-dideoxy-α-L-arabinofuranosyl]uracil] | 512 µg/mL (≈ 662 µM) | 256 µg/mL (≈ 331 µM) | >512 µg/mL | 512 µg/mL (≈ 662 µM) | 512 µg/mL (≈ 662 µM) | 4 µg/mL (≈ 5.17 µM) | 128 µg/mL (≈ 165 µM) | >512 µg/mL | >512 µg/mL | 128 µg/mL (≈ 165 µM) | – | –
CSCCC(N)C(=O)N(C)C(C)C(NC(=O)C(C)NC(=O)NC(Cc1c[nH]c2ccccc12)C(=O)O)C(=O)NCC1CC(O)C(n2ccc(=O)[nH]c2=O)O1 [Compound 168, 1-[5′-[(2S,3S)-N^2-[N-[[(1S)-1-Carboxy-2-indol-3-ylethyl]carbamoyl]-L-alanyl]-N^3-L-methionyl-N^3-methyl-2,3-diaminobutyramido]-3′,5′-dideoxy-α-L-arabinofuranosyl]uracil] | 64 µg/mL (≈ 82.7 µM) | 8 µg/mL (≈ 10.3 µM) | >512 µg/mL | >512 µg/mL | >512 µg/mL | 4 µg/mL (≈ 5.17 µM) | 256 µg/mL (≈ 331 µM) | >512 µg/mL | >512 µg/mL | 256 µg/mL (≈ 331 µM) | – | –
CC(C)[C@H](NC(=O)N[C@@H](Cc1c[nH]c2ccccc12)C(=O)O)C(=O)N[C@H](C(=O)NC[C@H]1C[C@@H](O)[C@H](n2ccc(=O)[nH]c2=O)O1)[C@H](C)N(C)C(=O)[C@H](C)N [Compound 169, 1-[5′-[(2S,3S)-N^3-L-Alanyl-N^2-[N-[[(1S)-1-carboxy-2-indol-3-ylethyl]carbamoyl]-L-valinyl]-N^3-methyl-2,3-diaminobutyramido]-3′,5′-dideoxy-α-L-arabinofuranosyl]uracil] | 128 µg/mL (≈ 173 µM) | 128 µg/mL (≈ 173 µM) | >512 µg/mL | 64 µg/mL (≈ 86.3 µM) | 256 µg/mL (≈ 345 µM) | 2 µg/mL (≈ 2.7 µM) | 32 µg/mL (≈ 43.1 µM) | >512 µg/mL | >512 µg/mL | 128 µg/mL (≈ 173 µM) | – | –
